Patent US8129427B2, “2-phenylethylamino derivatives as calcium and/or sodium channel modulators” (Newron Pharmaceuticals S.p.A., priority 2005, dated 2012)
Counter-ions that a name gives are not always drawn. Like-named read-outs stand apart in the source and are kept apart here.

How the values were obtained:
[1] = system: L-type calcium channels; format: cell-based, mouse; conditions: AtT20/D16v-F2 cells, ω-conotoxin 1 μM, 100 mM KCl depolarization
[2] = biological target: N-type calcium channels (Homo sapiens, UniProt Q00975); experiment: N-type calcium channel influx assay (fluorescence); format: cell-based
[3] = biological target: T1, MAO-B (Rattus norvegicus, UniProt P19643); experiment: In vitro MAO-B enzyme activity radioenzymatic assay; format: biochemical; conditions: 100 μM compound, rat brain crude mitochondrial fraction, 14C-PEA substrate
T1 construct: from tissue; host or cells: rat brain crude mitochondrial fraction
T1 sequence (P19643 1-520): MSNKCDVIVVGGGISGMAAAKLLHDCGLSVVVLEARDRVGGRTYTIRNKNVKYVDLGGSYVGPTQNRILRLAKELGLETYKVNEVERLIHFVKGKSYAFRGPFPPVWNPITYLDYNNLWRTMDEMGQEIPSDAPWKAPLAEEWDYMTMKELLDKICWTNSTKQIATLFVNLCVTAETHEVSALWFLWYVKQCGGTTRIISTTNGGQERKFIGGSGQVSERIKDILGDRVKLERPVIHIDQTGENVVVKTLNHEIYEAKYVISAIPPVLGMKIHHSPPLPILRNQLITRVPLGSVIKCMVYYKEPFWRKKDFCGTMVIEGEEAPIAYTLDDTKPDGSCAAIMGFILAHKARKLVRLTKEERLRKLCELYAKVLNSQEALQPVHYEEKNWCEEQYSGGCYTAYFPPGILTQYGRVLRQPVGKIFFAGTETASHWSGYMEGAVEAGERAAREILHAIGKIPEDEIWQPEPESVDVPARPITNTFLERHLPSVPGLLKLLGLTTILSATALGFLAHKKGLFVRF
Protocol: Male Wistar rats (Harlan, Italy—175-200 g) were sacrificed under light anaesthesia and brains were rapidly removed and homogenized in 8 volumes of ice-cold 0.32 M sucrose buffer containing 0.1 M EDTA, pH 7.4. The crude homogenate was centrifuged at 2220 rpm for 10 minutes and the supernatant recovered. The pellet was homogenized and centrifuged again. The two supernatants were pooled and centrifuged at 9250 rpm for 10 minutes at +4° C. The pellet was resuspended in fresh buffer and centrifuged at 11250 rpm for 10 minutes at +4° C. The resulting pellet was stored at −80° C.
The enzyme activities were assessed with a radioenzymatic assay using the substrates ^14C-serotonin (5-HT) and ^14C-phenylethylamine (PEA) for MAO-A and MAO-B, respectively.
The mitochondrial pellet (500 μg protein) was resuspended in 0.1 M phosphate buffer (pH 7.4). 500 μl of the suspension were added to a 50 μl solution of the test compound or buffer, and incubated for 30 min at 37° C. (preincubation) then the substrate (50 μl) was added. The incubation was carried out for 30 minutes at 37° C. (^14C-5-HT, 5 μM) or for 10 minutes at 37° C. (^14C-PEA, 0.5 μM).
The reaction was stopped by adding 0.2 ml of 37% HCl or perchloric acid. After centrifugation, the deaminated metabolites were extracted with 3 ml of diethyl ether (5-HT) or toluene (PEA) and the radioactive organic phase was measured by liquid scintillation spectrometry at 90% efficiency. The amount of neutral and/or acidic metabolites formed as a result of MAO activity was obtained by measuring the radioactivity of the eluate.
The activity of MAO in the sample, corresponding to a percentage of radioactivity compared with the control activity in the absence of the inhibitor, was expressed as nmoles of substrate transformed/mg protein/min.

[4] = system: TTXs sodium channels; experiment: TTXs-sodium channel influx assay (membrane potential fluorescence); format: cell-based, rat; conditions: ND7/23 cells, veratridine 100 μM
Protocol: ND7/23 rat dorsal root ganglion-derived cell line endogenously expresses a mixed population of TTXs sodium channels (such as Nav1.3, Nav1.2, Nav1.1, Nav1.6). These cells lack of TTXr sodium channels as shown by the absence of their respective transcripts. ND7/23 cells were grown in DMEM supplemented with 10% FBS and 1 mM sodium piruvate.
The cells were seeded at 50,000 cells/well on 96 poly-L-lysine-coated plates and further incubated for 18-24 h before use.
The Membrane Potential Kit Assay (Molecular Devices), based on a negatively charged fluorescent dye able to monitor changes in membrane potential caused by the sodium influx due to the channel opening, was used for the assay.
Cells were incubated with the dye loading for 30 minutes at 25° C. Then, 100 nM of the toxin Anemonia sulcata (used as enhancer of the channel opener response) alone or in the presence of TTX (as reference standard) or test compound were added for further 15 minutes.
The fluorescence (excitation: 530 nm, emission: 565 nm wavelength) was measured before and after (40-45 s) the automated injection of the sodium channel opener veratridine (100 μM) using a Victor plate reader (Perkin Elmer).
The inhibition curves were calculated from 5 concentrations, each in triplicate, and the IC50 determined using a linear regression analysis.

[5] = biological target: recombinant human N-type channels, h α1B (hCav2.2)+β1b+α2δ-1 subunits (Homo sapiens, UniProt Q00975); experiment: Patch clamp studies of calcium currents inhibition in HEK293 cells; format: cell-based; conditions: tonic block, preconditioning −50/−55 mV (half maximal steady-state inactivated condition); read-out: IC50 (Vhalf)
Protocol: Functional inhibition of the N-type Ca currents was studied using whole cell patch clamp methods (Hamill O. P., Marty A., Neher E., Sakmann B., Sigworth F. J. Pflugers Arch. (1981) 391: 85-100) on HEK293 cells expressing recombinant human N-type channels, obtained after transient transfection of h α1B (hCav2.2)+β1b+α2δ-1 subunits.
Membrane currents were recorded and filtered at 5 kHz with an Axon Axopatch 200B amplifier and digitized with an Axon Digidata 1322A (Axon Instruments, CA, USA). Voltage clamping of membrane potentials and data acquisition were controlled online with Axon pClamp8 software. Measuring and reference electrodes were AgCl—Ag electrodes. Cells had initial seal resistances of >1 GΩ and access resistances of 4.2±0.2 MΩ. Cells were continuously superfused with extracellular solutions using a Biologic RSC-200.
For calcium currents recording the control bath solution contained (mM): Choline chloride (70), MgCl2 (1), BaCl2 (20), TEA.Cl (50), Hepes (10), Glucose (10). Internal pipette solution consisted of (mM): CsCl (140), EGTA (10), MgCl2 (2), Hepes (10), MgATP (1), GTP Tris (0.3).
Compounds were dissolved as 20 mM stock solutions in DMSO and then diluted to the final concentration in the external solutions.
A two-step protocol was used to determine the voltage dependence of the block:
N-type current was activated by a 600 ms step pulse to +10 mV (test pulse) from a 5000 ms preconditioning potential of −110 mV (resting condition) or −50/−55 mV (half maximal steady-state inactivated condition), respectively.
The amplitude of calcium current peaks evoked by the respective test pulses at a frequency of 0.06 Hz were measured before and after exposure to the test substance. Tonic block of currents was calculated as the difference between the peak calcium current measured at the end of a stabilization period in the control external bath solution and peak currents measured at the end of test substance perfusion period (when steady state is reached) divided by control peaks. […]

[6] = differentiated IMR32 cells, nifedipine 1 μM, 100 mM KCl depolarization, read-out: IC50

N-type calcium channels, sequence (Q00975 whole entry): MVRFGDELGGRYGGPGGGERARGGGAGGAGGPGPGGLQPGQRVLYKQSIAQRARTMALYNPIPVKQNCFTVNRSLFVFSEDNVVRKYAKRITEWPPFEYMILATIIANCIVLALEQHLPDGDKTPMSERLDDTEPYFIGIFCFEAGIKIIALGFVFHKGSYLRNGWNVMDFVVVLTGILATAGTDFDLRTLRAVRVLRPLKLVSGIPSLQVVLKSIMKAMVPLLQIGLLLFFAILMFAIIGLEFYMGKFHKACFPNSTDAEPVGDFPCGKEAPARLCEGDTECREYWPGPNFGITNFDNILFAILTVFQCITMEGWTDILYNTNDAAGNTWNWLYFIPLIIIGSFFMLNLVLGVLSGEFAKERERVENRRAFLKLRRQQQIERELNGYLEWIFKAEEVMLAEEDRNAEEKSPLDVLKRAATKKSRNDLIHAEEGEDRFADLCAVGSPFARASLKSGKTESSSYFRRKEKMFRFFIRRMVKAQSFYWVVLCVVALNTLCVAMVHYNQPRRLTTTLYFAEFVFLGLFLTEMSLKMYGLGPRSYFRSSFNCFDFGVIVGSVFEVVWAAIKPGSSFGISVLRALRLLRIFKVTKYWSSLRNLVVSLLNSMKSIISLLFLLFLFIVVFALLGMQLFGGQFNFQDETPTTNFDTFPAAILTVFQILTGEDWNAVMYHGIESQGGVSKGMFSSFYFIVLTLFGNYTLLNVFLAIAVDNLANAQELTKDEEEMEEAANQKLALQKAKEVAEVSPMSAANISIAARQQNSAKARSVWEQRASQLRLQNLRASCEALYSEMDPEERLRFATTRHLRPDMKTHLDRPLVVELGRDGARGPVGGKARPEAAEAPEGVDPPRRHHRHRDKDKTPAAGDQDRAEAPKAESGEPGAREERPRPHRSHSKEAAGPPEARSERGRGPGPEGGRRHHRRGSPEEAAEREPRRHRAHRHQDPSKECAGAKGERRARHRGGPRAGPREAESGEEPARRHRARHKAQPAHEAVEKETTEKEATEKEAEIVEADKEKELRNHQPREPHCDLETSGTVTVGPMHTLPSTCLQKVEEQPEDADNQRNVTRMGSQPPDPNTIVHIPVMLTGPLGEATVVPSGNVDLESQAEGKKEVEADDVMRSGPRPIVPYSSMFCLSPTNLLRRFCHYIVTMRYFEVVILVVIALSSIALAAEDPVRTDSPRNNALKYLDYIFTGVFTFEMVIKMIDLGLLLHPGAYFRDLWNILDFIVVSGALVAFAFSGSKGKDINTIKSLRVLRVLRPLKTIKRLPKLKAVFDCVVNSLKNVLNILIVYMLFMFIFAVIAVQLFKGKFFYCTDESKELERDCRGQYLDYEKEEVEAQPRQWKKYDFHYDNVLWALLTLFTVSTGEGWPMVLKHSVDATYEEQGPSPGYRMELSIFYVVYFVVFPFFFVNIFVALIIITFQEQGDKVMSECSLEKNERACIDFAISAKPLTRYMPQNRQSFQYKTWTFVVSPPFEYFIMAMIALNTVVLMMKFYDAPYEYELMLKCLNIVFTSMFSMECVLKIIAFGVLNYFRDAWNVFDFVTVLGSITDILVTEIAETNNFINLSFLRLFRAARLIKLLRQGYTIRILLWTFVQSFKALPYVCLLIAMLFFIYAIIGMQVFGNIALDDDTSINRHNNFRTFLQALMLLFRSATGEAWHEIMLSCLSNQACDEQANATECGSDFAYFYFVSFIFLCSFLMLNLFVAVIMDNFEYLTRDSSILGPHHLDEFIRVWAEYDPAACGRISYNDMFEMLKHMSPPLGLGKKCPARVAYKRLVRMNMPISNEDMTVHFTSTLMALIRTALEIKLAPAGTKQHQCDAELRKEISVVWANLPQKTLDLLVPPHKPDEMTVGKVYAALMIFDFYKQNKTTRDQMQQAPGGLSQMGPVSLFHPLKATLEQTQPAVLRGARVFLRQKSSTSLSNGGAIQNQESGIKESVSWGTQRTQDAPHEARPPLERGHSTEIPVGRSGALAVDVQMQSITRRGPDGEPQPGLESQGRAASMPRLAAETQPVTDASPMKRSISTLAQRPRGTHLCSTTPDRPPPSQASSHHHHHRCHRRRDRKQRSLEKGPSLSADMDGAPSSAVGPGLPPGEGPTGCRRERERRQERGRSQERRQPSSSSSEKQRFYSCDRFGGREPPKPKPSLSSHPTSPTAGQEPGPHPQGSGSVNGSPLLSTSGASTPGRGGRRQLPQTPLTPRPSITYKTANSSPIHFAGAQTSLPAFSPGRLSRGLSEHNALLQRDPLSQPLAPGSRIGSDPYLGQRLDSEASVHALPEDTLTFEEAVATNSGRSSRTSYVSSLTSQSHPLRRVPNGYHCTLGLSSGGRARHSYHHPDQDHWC
N-type calcium channels, sequence (Q02641 whole entry partner): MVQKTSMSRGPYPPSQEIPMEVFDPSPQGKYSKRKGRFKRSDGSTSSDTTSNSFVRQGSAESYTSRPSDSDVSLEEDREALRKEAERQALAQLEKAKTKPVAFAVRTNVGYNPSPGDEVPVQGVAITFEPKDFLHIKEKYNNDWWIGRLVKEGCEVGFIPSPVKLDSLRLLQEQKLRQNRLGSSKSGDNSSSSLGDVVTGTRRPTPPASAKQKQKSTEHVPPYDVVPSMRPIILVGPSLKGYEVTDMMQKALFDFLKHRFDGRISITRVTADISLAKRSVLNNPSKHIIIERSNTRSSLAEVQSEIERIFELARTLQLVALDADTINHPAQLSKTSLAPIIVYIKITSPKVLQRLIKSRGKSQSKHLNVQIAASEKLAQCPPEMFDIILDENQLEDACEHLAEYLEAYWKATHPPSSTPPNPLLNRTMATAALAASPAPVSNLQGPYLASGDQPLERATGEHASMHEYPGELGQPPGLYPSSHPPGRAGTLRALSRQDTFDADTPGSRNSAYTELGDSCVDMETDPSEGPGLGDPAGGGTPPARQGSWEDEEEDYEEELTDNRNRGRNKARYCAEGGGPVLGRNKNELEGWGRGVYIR
N-type calcium channels, sequence (P54289 25-956 partner limits assumed): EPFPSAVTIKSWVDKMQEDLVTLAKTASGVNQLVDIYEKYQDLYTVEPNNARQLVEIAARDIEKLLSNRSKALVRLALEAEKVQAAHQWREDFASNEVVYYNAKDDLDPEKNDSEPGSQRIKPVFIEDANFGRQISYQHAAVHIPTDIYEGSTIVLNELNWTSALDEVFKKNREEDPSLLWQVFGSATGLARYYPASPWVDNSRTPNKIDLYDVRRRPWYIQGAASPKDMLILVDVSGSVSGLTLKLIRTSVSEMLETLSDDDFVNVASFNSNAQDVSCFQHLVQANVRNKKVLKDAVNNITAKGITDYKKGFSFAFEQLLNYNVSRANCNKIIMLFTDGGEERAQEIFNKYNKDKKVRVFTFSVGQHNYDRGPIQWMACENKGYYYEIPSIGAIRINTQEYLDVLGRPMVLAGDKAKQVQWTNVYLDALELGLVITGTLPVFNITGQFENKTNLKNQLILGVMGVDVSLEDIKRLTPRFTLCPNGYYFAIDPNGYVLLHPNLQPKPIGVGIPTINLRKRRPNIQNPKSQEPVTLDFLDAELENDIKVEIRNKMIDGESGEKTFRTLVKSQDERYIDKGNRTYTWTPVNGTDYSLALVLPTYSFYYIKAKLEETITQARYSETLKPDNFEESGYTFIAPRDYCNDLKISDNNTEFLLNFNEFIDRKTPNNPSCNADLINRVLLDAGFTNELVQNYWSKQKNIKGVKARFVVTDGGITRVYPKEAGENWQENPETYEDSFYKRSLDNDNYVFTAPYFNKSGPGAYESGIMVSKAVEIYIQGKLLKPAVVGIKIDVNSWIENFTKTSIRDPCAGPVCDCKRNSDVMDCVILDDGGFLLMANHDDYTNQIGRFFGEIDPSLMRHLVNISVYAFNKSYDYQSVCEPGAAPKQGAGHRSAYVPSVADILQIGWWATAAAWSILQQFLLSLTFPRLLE
N-type calcium channels, sequence (P54289 957-1103 partner limits assumed): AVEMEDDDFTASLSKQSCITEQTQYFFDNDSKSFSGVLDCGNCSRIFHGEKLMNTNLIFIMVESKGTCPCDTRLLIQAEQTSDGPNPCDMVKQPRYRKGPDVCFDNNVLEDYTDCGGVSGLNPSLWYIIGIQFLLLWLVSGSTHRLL
recombinant human N-type channels, h α1B (hCav2.2)+β1b+α2δ-1 subunits, sequence (Q00975 whole entry): as the sequence (Q00975 whole entry) above
recombinant human N-type channels, h α1B (hCav2.2)+β1b+α2δ-1 subunits, sequence (Q02641 whole entry partner): as the sequence (Q02641 whole entry partner) above
recombinant human N-type channels, h α1B (hCav2.2)+β1b+α2δ-1 subunits, sequence (P54289 25-956 partner limits assumed): as the sequence (P54289 25-956 partner limits assumed) above
recombinant human N-type channels, h α1B (hCav2.2)+β1b+α2δ-1 subunits, sequence (P54289 957-1103 partner limits assumed): as the sequence (P54289 957-1103 partner limits assumed) above

Row | SMILES | IC50 [1] | IC50 [2, 6] | inhibition at 100 µM [3] | IC50 [4] | IC50 [2] | IC50 [5]
1 | CC(C)(N)CNC(=O)CN(CCc1cccc(OCc2cccc(F)c2)c1)Cc1ccco1 [Example 72, 2-[[2-[3-(3-Fluoro-benzyloxy)-phenyl]-ethyl]-(furan-2-ylmethy ° amino]-N-(2-amino-2-methyl-propyl)-acetamidedihydrochloride] | 2900 nM | 2600 nM | 31% | – | – | –
2 | COc1cc(CCNC(C(=O)N(C)C)c2ccccc2)ccc1OCc1cccc(F)c1 (stereo not shown) [Example 32, 2-[2-[4-(3-Fluoro-benzyloxy)-3-methoxy-phenyl]-ethylamino]-2-phenyl-N,N-dimethyl-acetamide hydrochloride] | – | – | 0% | – | – | –
3 | CNC(=O)[C@H](CC(C)C)NCCc1ccc(OCc2cccc(F)c2)c(OC)c1 [Example 31, (S)-2-[2-[4-(3-Fluoro-benzyloxy)-3-methoxy-phenyl]-ethylamino]-N-methyl-4-methyl-valeramide] | 1000 nM | – | – | – | – | –
4 | CNC(=O)CN(CCc1ccc(OCc2cccc(F)c2)c(OC)c1)Cc1ccc(OC)nc1 [Example 14, 2-[[2-[4-(3-Fluoro-benzyloxy)-3-methoxy-phenyl]-ethyl]-(6-methoxy-pyridin-3-ylmethyl)amino]-N-methyl-acetamide] | – | – | – | 2900 nM | – | –
5 | CN(C)CCNC(=O)CN(CCc1cccc(OCc2cccc(F)c2)c1)Cc1ccco1 [Example 71, 2-[[2-[3-(3-Fluoro-benzyloxy)-phenyl]-ethyl]-(furan-2-ylmethyl)amino]-N-(2-dimethylamino-ethyl)-acetamide dihydrochloride] | 3400 nM | 1900 nM | 34% | – | – | –
6 | COc1cc(CCN(CC(=O)NCCC2CCCN2C)Cc2ccccc2)ccc1OCc1cccc(F)c1 (stereo not shown) [Example 44, 2-[[2-[4-(3-Fluoro-benzyloxy)-3-methoxy-phenyl]-ethyl]-benzylamino]-N-[2-(1-methyl-pyrrolidin-2-yl)-ethyl]-acetamide hydrochloride] | – | – | 39% | – | – | –
7 | COc1cc(CCN(CC(=O)NCCN(C)C)Cc2ccccc2)ccc1OCc1cccc(F)c1 [Example 43, 2-[[2-[4-(3-Fluoro-benzyloxy)-3-methoxy-phenyl]-ethyl]-benzylamino]-N-(2-dimethylamino-ethyl)-acetamide hydrochloride] | 1200 nM | 1900 nM | 33% | – | – | –
8 | COc1cc(CCN(CC(=O)NCC(C)(C)N)Cc2ccccc2)ccc1OCc1cccc(F)c1 [Example 42, 2-[[2-[4-(3-Fluoro-benzyloxy)-3-methoxy-phenyl]-ethyl]-benzylamino]-N-(2-amino-2-methyl-propyl)-acetamide hydrochloride] | 2400 nM | 2600 nM | 32% | – | – | –
9 | CCNC(=O)CN(CCc1ccc(OCc2cccc(F)c2)c(OC)c1)Cc1ccccc1 [Example 37, 2-[[2-[4-(3-Fluoro-benzyloxy)-3-methoxy-phenyl]-ethyl]-benzylamino]-N-ethyl-acetamide hydrochloride] | – | – | 4% | 1200 nM | – | –
10 | CNC(=O)CN(CCc1ccc(OCc2cccc(F)c2)c(OC)c1)CC(C)C [Example 2, 2-[[2-[4-(3-Fluoro-benzyloxy)-3-methoxy-phenyl]-ethyl]-isobutylamino]-N-methyl-acetamide hydrochloride] | 3100 nM | 4800 nM | 53% | – | – | –
11 | COc1cc(CCNC(C(=O)N2CCOCC2)c2ccccc2)ccc1OCc1cccc(F)c1 (stereo not shown) [Example 33, 2-[2-[4-(3-Fluoro-benzyloxy)-3-methoxy-phenyl]-ethylamino]-1-(morpholin-4-yl)-2-phenyl-ethanone hydrochloride] | 7100 nM | 6000 nM | 0% | 2100 nM | – | –
12 | CNC(=O)CN(CCc1ccc(OCc2cccc(F)c2)c(OC)c1)Cc1ccoc1 [Example 10, 2-[[2-[4-(3-Fluoro-benzyloxy)-3-methoxy-phenyl]-ethyl]-(furan-3-ylmethyl)amino]-N-methyl-acetamide hydrochloride] | 1700 nM | – | – | – | – | –
13 | COc1cc(CCN(CC(=O)N(C)C)Cc2ccccc2)ccc1OCc1cccc(F)c1 [Example 20, 2-[[2-[4-(3-Fluoro-benzyloxy)-3-methoxy-phenyl]-ethyl]-benzylamino]-N,N-dimethyl-acetamide hydrochloride] | 4600 nM | – | 3% | – | 1100 nM | –
14 | CCNC(=O)CN(CCc1ccc(OCc2cccc(F)c2)c(OC)c1)CC1CC1 [Example 47, 2-[[2-[4-(3-Fluoro-benzyloxy)-3-methoxy-phenyl]-ethyl]-(cyclopropylmethyl)amino]-N-ethyl-acetamide hydrochloride] | 1800 nM | – | – | – | – | –
15 | CNC(=O)CN(CCc1ccc(OCc2cccc(F)c2)c(OC)c1)CC1CCOC1 (stereo not shown) [Example 7, 2-[[2-[4-(3-Fluoro-benzyloxy)-3-methoxy-phenyl]-ethyl]-(tetrahydrofuran-3-ylmethyl)amino]-N-methyl-acetamide hydrochloride] | – | – | – | – | – | 11 µM
16 | COc1cc(CCN(CC(=O)N2CCCC2)Cc2ccccc2)ccc1OCc1cccc(F)c1 [Example 40, 2-[[2-[4-(3-Fluoro-benzyloxy)-3-methoxy-phenyl]-ethyl]-benzylamino]-1-(pyrrolidin-1-yl)-ethanone hydrochloride] | 1600 nM | 2200 nM | 11% | – | – | –
